How the values were obtained:
[1] = test system: Stat1; assay: IFN-alpha-induced Stat1 tyrosine phosphorylation, WM9 cells; type: cell-based, human; conditions: WM9, 5 hours post-stimulation
Protocol: (§1) For induction of Stat1 tyrosine phosphorylation by IFN-alpha in the absence or presence of sodium stibogluconate, cells grown in 10% FCS RPMI 1640 medium at 37° C. were stimulated with IFN-alpha (50 u/ml) for various time points and treated with or without sodium stibogluconate for 5 minutes prior to termination by lysing the cells in cold lysis buffer (1% NP-40; 50 mM Tris, pH 7.4; 100 mM NaCl; 1 mM EDTA, 10% glycerol, 10 mM sodium molybdic acid and 4 mM AEBSF).
(§2) Cell lysates were prepared by lysing cells in cold lysis buffer for 30 min and cleared by centrifuging at 14,000 rpm at 4° C. for 15 min. For SDS-PAGE, cell lysates were mixed with equal volume of 2×SDS-PAGE sample buffer, heated at 90° C. for 5 min and separated in 10% SDS-PAGE gels. Cellular proteins in SDS-PAGE gels were transferred to nitrocellulose membrane (Schleicher & Schuell, Keene, N.H.), blocked in 5% milk, probed with antibodies and detected by using an enhanced chemiluminescence kit (ECL, Amersham, Arlington Heights, Ill.).

[2] = test system: Stat1; assay: IFN-alpha-induced Stat1 tyrosine phosphorylation, WM35 cells; type: cell-based, human
Protocol: as §1, §2

[3] = test system: NB4 cells; assay: NB4 cell differentiation (NBT reduction, CD11b); type: cell-based, human
Protocol: Differentiation of AML cell lines was assessed by their ability to produce superoxide as measured by reduction of NBT to formazan and by analysis of expression of CD11b surface marker by flow cytometry. For NBT reduction, each cell suspension was mixed with an equal volume of solution containing 1 mg/ml of NBT (Sigma) and 2.5 μg/ml of TPA for 30 minutes at 37° C. After incubation, cells containing the purple formazan deposits and cells devoid of NBT-reducing activity (white cells) in each sample were determined by counting 200 cells under microscope. Data is expressed as a percentage based on the following ratio: purple cells/purple+white cells. For analysis of cell surface antigens, cells were exposed to phycoerythrin (PE)-conjugated murine anti-human CD11b (DAKO Corp., Carpinteria, Calif.). Analysis of fluorescence was performed on a FACScan flow cytometer (Beckton Dickinson, Mountain View, Calif.).

[4] = test system: DS cells; assay: Cell proliferation assay (MTT), DS lymphoma cells; type: cell-based, human; conditions: day 3; IFN-alpha 1,000 u/ml
Protocol: For cell proliferation assays, cells were grown in 10% FCS culture medium containing various amounts of IFNs and/or sodium stibogluconate in 96 well plates and cultured at 37° C. for 3 or 6 days as indicated. The numbers of viable cells in proliferation assays were determined by MTT assays as described in Phatak et al., J. Immunol. 167, 3391 (2001).

[5] = cited from earlier work
[6] = test system: AML-3 cells; assay: AML-3 cell differentiation; type: cell-based, human
[7] = molecular target: T1, PRL-3 (Homo sapiens, UniProt O75365); assay: In vitro PTPase assay, recombinant PRL-3; type: biochemical
T1 construct: cDNAs of human PRL-1, PRL-2 and PRL-3 coding region were derived by RT-PCR from H9 cells; made in house; host or cells: DH5a bacteria (E. coli)
T1 sequence (O75365 whole entry): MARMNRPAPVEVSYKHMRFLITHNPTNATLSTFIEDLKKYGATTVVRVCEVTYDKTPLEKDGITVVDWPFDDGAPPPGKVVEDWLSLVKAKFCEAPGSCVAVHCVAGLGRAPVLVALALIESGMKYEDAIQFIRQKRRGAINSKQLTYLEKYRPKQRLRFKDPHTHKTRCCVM
Source text: Sodium stibogluconate, suramin, sodium orth ovanadate and GST fusion protein of SHP-1 have been described previously (Pathak et al., J. Imumol. 167, 3391 (2001)). Meglumine antimonate was obtained from Aventis. cDNAs of human PRL-1, PRL-2 and PRL-3 coding region were derived by RT-PCR from H9 cells (Safai, et al., Lancet 1, 1438 (1984)) and inserted in frame into the pGEX vector. cDNA of PRL-1R86 was generated by recombinant DNA technique using PRL-1 cDNA as template following established procedures (Jiao, et al., Mol. Cell. Biol. 16, 6985 (1996)). GST fusion proteins of the PRL phosphatases were prepared from DH5a bacteria transformed with the pGEX fusion protein constructs as described previously (Yi, et al., Mol. Cell. Biol. 12, 836 (1992)). cDNAs encoding the PRLs tagged at the N-termini with the Flag epitope (Castrucci, et al., J. Virol. 66, 4647 (1992)) were generated via recombinant DNA technique, sequenced to confirm their identities and cloned into the pBabepuro vector (Yang, et al., Blood 91, 3746 (1998)). Anti-Flag monoclonal antibody (M2, Sigma) was purchased from a commercial source. A synthetic phosphotyrosine peptide (Arg-Arg-Leu-Ile-Glu-Asp-Ala-Gle-Tyr-Ala-Ala-Arg-Gly (SEQ ID NO: 3), wherein the tyrosine is phosphorylated; UBI) and DiFMUP (6, 8-difluoro-4-methylumbelliferyl phosphate, Molecular Probes) were purchased as substrates for PTPase assays.
In vitro PTPase assays were used to determine the effects of compounds on recombinant PTPases, following established procedures using a synthetic phosphotyrosine peptide or DiFMUP as the substrate (Pathak et al., J. Imumol. 167, 3391 (2001)). Briefly, individual PTPases (0.1 μg/reaction) in 50 μL of PTPase buffer (50 mM Tris, pH 7.4) were incubated at 22° C. for 10 minutes or as indicated in the absence or presence of inhibitory compounds. Substrates (0.2 mM phosphotyrosine peptide) were then added and allowed to react at 22° C. for 18 hrs. PTPase activity of individual reactions was measured by adding 100 μL of malachite green solution (UBI) and then quantifying the amounts of free phosphate cleaved by the PTPase from the peptide substrate by spectrometry (OD660 nm). PTPase assays using DiFMUP as a substrate were conducted following a previously described procedure (Matter, et al., Biochem. Biophys. Res. Comm. 283, 1061 (2001)). Relative PTPase activities were calculated based on the formula: (PTPase activity in the presence of an inhibitory compound/PTPase activity in the absence of the compound)×100%. To assess the reversibility of PTPase inhibition, GST fusion proteins of the PTPases bound on glutathione beads (Pharmacia) were pre-incubated with cold Tris buffer (50 mM Tris, pH 7.0) or Tris buffer containing the inhibitor at 4° C. for 30 minutes. The beads were then washed three times in cold Tris buffer or not washed prior to subjecting to in vitro PTPase assays.

SMILES: O.O.O.O.O.O.O.O.O.O=C([O-])[C@@H]1[O][Sb]2([O-])([O][Sb]34([OH])[O][C@H]([C@H](O)CO)[C@H]([O]3)[C@H](C(=O)[O-])[O]4)[O][C@H]([C@H](O)CO)[C@@H]1[O]2.[Na+].[Na+].[Na+] [sodium stibogluconate]
- IFN-alpha-induced Stat1 tyrosine phosphorylation [1]: Enhanced
- IFN-alpha-induced Stat1 tyrosine phosphorylation [2]: failed to enhance
- interaction with ATRA in differentiation induction [3]: did not synergize with ATRA
- reversibility of induced NB4 differentiation after drug removal ([3]; 6 days with drug (10 or 100 μg/ml), washed, 6 days without): not reversed
- activity against DS cells [4]: modest activity
- serum levels at standard dosage for leishmaniasis treatment ([5]; 10-20 mg/kg/day): ≥ 10000 ng/mL
- clinical side effects at higher dosages ([5]; human, in vivo): reversible nonspecific ECG changes and renal defects
- clinical tolerability at therapeutic dosages ([5]; human, in vivo): well tolerated
- differentiation of AML-3 cells [6]: inducing differentiation
- inactivation of PRL-3 with prolonged pre-incubation ([7]; 10 μg/ml, pre-incubation 30 or 60 minutes): nearly complete inactivation
- inhibition of PRL-3 with DiFMUP substrate ([7]; DiFMUP, comparable conditions): also detected
- reversibility of PRL-3 inhibition by washing ([7]; PRL-3 bound to glutathione beads): not relieved by a washing process
